Assay results: patent publication US11214556B1, “Method of treating colorectal cancer” (King Abdulaziz University, priority 2019, dated 2022)

System: HCT-116 cells
Experiment: Cell cycle analysis by flow cytometry
Assay type: cell-based, human
Settings: IC50 concentration, 24 h
From the text: The exposure of the cells to 4112 led to a significant increase in the proportion of cells in pre-G1 phase (Up to 9-fold compared to the control). Accumulation of cells in pre-G1 phase, likely as a result of degradation or fragmentation of genetic material indicates a possible role for apoptosis through compound-induced growth inhibition.
The cells were collected by trypsinization, washed with phosphate buffered saline (PBS) and fixed in ice-cold absolute alcohol. Thereafter, cells were stained using Cycletest™ Plus DNA Reagent Kit (BD Biosciences, San Jose, Calif.) according to the manufacturer's instructions. Cell cycle distribution was determined using a FACS Calibur flow cytometer (BD Biosciences, San Jose, Calif.).

CCCNC(=O)/C(=C/c1c[nH]c2ccccc12)NC(=O)/C=C/c1cccs1 [Compound 4112, (Z)-3-(1H-indol-3-yl)-N-propyl-2-[(E)-3-(thien-2-yl)acrylamidolacry]amide]
increase in proportion of cells in pre-G1 phase compared to the control: Up to 9 fold
